Data: PubChem BioAssay (NCI)
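In this assay, cells in 96-well plates receive the compound at five concentrations for 48 hours. Endpoints are linearly interpolated between the surrounding concentrations. GI50 = concentration required for 50% inhibition of growth. TGI: total growth inhibition.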

Legend:
Experiment in all cases: NCI tumour cell line growth inhibition, 48 h
HCT-116 colon = test system: HCT-116 colon
CAKI-1 renal = test system: CAKI-1 renal
HT29 colon = test system: HT29 colon
RXF 393 renal = test system: RXF 393 renal
A549 NSCLC = test system: A549 NSCLC
HL-60(TB) leukemia = test system: HL-60(TB) leukemia
KM12 colon = test system: KM12 colon
RPMI-8226 leukemia = test system: RPMI-8226 leukemia
NCI-H460 lung = test system: NCI-H460 lung
K-562 leukemia = test system: K-562 leukemia

Compound | TGI (HCT-116 colon) [µM] | TGI (CAKI-1 renal) [µM] | TGI (HT29 colon) [µM] | TGI (RXF 393 renal) [µM] | TGI (A549 NSCLC) [µM] | TGI (HL-60(TB) leukemia) [µM] | TGI (KM12 colon) [µM] | TGI (RPMI-8226 leukemia) [µM] | TGI (NCI-H460 lung) [µM] | TGI (K-562 leukemia) [µM] | GI50 (HCT-116 colon) [µM] | GI50 (CAKI-1 renal) [µM] | GI50 (HT29 colon) [µM] | GI50 (RXF 393 renal) [µM] | GI50 (A549 NSCLC) [µM] | GI50 (HL-60(TB) leukemia) [µM] | GI50 (KM12 colon) [µM] | GI50 (RPMI-8226 leukemia) [µM] | GI50 (NCI-H460 lung) [µM]
CC(C)c1cc(CN(C)C)c(O)c(C(C)(C)C)c1 | > 100 | 53.8 | > 100 | 37.2 | 53.1 | 15.1 | 46.2 | 32.3 | 32.3 |  |  |  |  |  |  |  |  |  | 
C=CC[N+]12CN3CN(CN(C3)C1)C2 | 58.2 | 37.1 | 42.8 | 38 | > 100 | > 100 | 66.8 | 39 | 54.7 | > 100 |  |  |  |  |  |  |  |  | 
COc1ccc(C[C@H](N)C(=O)NC2C(CO)OC(n3cnc4c(N(C)C)ncnc43)C2O)cc1 (some centres undefined) | 0.293 |  |  | 0.73 | 2.55 | 0.442 | 1.32 | 1.3 | 1.15 | 1.16 |  |  |  |  |  |  |  |  | 
O=C1c2ccccc2C(=O)c2c(Nc3ccc4c5c(cccc35)C(=O)c3ccccc3-4)cccc21 | > 100 | > 100 | > 100 | > 100 | > 100 |  | > 100 |  | > 100 | > 100 |  |  |  |  |  |  |  |  | 
CC(C)(C)N1C(C(=O)c2ccccc2)C1c1ccccc1 (centres undefined) |  |  | > 100 | > 100 | > 100 | > 100 | > 100 | > 100 | > 100 | > 100 |  |  |  |  |  |  |  |  | 
O=c1ccc2nc(-c3ccccc3)nn(-c3ccccn3)c-2c1 | 11.3 | 2.84 | 15.1 | 3.3 | > 100 | 4.33 | 70.2 | 63.1 | > 100 |  | 3.33 | 1.5 | 3.2 | 1.79 | 38.4 | 1.34 | 25.5 | 5.32 | 70.2
N#CN=C(N)NC(=O)/C=C/C=C/c1ccc(Cl)cc1 | > 100 | > 100 | > 100 | > 100 | > 100 | > 100 | > 100 | > 100 | > 100 | > 100 |  |  |  |  |  |  |  |  | 
Nc1nc(N)c2c(n1)NC(=O)c1c(c3ccccc3n1Cc1ccc(Cl)cc1)C2 | 66.9 | 34.5 | > 100 | 33.4 | 62.6 | 39.4 |  |  | 36.8 | > 100 |  |  |  |  |  |  |  |  | 
